Test results: patent publication US20130281313A1, “PROGNOSTIC AND/OR PREDICTIVE BIOMARKERS AND BIOLOGICAL APPLICATIONS THEREOF” (INSTITUT GUSTAVE ROUSSY, priority 2010, published 2013)

Columns and labels:
[1] = system: murine Lewis lung carcinoma (LLC) cells in immunocompetent C57BL/6 mice; assay: Tumor graft model: LLC cells in C57BL/6 mice; format: in vivo, mouse; details: 5 mg/kg intraperitoneal CDDP + intraperitoneal Orlistat (240 mg/Kg), three times a week
Experimental: (§1) C57BL/6 (H-2b) and Swiss Nude mice were obtained from Janvier (Le Genest St. Isle, France) and Charles River, respectively. Animals were maintained in pathogen-free conditions, and all experiments were carried out (upon approval by the local ethical committee) according to the Federation of European Laboratory Animal Science Association (FELASA) guidelines. Mice were used between 6 and 12 weeks of age. During the experiments, animals were subjected to artificial light cycle (12 h lights on-12 h lights off) and allowed food and drink ad libitum.
(§2) 5×10^5 LLC and A549 cells were subcutaneously xenografted (in 100 μL sterile PBS) in 25-30 immunocompetent (C57BL/6) and immunodeficient (Swiss Nude) mice, respectively. When the surface of tumors reached 25-40 mm^2, n=4-6 mice were assigned to either of 4 different treatment groups: group 1=100 μL intraperitoneal PBS; group 2=5 mg/kg intraperitoneal CDDP in 100 μL PBS; group 3=240 mg/Kg intraperitoneal Orlistat® in 40 μL PBS; group 4=5 mg/kg intraperitoneal CDDP in 100 μL PBS+intraperitoneal Orlistat® in 40 μL PBS. Treatments were administered three times a week (day 1, 3 and 5; day 8=day 1). Tumor size was monitored on the day of treatment by means of a standard calliper and tumor volume was extrapolated as previously described {Streit, 1999}. […] Statistical significance was evaluated by two-way ANOVA.

A549 cells = assay: Cytofluorometric assessment of cell death (DiOC6(3)/PI co-staining); format: cell-based, human
Experimental: Unless otherwise specified, chemicals were purchased from Sigma-Aldrich (St. Louis, USA), culture media and supplements for cell culture from Gibco-Invitrogen (Carlsbad, USA) and plasticware from Corning (Corning, USA). […] Orlistat (Xenical®) was obtained from Roche (Basel, Switzerland). […] Undissolved material was removed by two sequential rounds of centrifugation at 12,000 G (5 min, room temperature, RT), supernatants were collected and stored at −80° C. under protection from light until use. In low-throughput experiments, all cell lines were treated with 2.5 mM pyridoxine (PN), exception made for A549 cells that received 5 mM PN.
To avoid depleting the siRNA library of selected sequences, siRNAs for validation experiments were purchased as custom molecules from Sigma-Aldrich. For low-throughput experiments, (see below for the transfection protocols employed in the siRNA screen), siRNA were transfected in A549 cells with Oligofectamine™ reagent (Invitrogen), following the manufacturer's instructions. Transfection with a non-targeting siRNA (siUNR) was employed as a negative control condition. Forty-eight hours after transfection, siRNA-mediated target downregulation was assessed by immunoblotting (see below).
All cytofluorometric determinations were carried out a FACSCalibur or a FACScan cytofluorometer (BD Biosciences, San Jose, USA) equipped with a 70 μm nozzle.
First line statistical analysis of cytofluorometric results was performed by using the CellQuest™ software (BD Biosciences), by gating on the events characterized by normal forward scatter and side scatter parameters. Apoptosis- and cell cycle-related data were further analyzed with Microsoft Excel (Microsoft Co., Redmond, USA) and statistical significance was assessed by means of two-tailed Student's t test (p<0.05).

[2] = system: A549 cells xenografted into immunodeficient Swiss nude mice; assay: Tumor graft model: A549 cells in Swiss nude mice; format: in vivo, mouse; details: A549 cells on Swiss nude mice; 5 mg/kg intraperitoneal CDDP + intraperitoneal Orlistat (240 mg/Kg), three times a week
Experimental: as §1, §2

## CCCCCCCCCCC[C@@H](C[C@@H]1OC(=O)[C@H]1CCCCCC)OC(=O)[C@H](CC(C)C)NC=O [Orlistat®, Orlistat]
[1]
  antitumor effects of CDDP-based chemotherapy (tumor growth): augmented the antitumor effects of CDDP-based chemotherapy in vivo
A549 cells; A549 cells in vitro, 25 or 75 μM CDDP
  cytotoxicity of CDDP upon pharmacological inhibition of LIPC: enhanced the cytotoxiticy of CDDP against A549 cells in vitro
A549 cells; A549 cells, followed by CDDP, DiOC6(3)/PI co-staining
  CDDP-induced killing, LIPC inhibition (orlistat) combined with IL6R inhibition: synergistically sensitized to CDDP-induced killing
[2]
  antitumor effects of CDDP-based chemotherapy (tumor growth): augmented the antitumor effects of CDDP-based chemotherapy in vivo
